This assay addresses protein phosphatase-2A1 (Homo sapiens, UniProt P67775). The assay is described as follows: Activation of protein phosphatase-2A1 in intact Jurkat cells (DEAE Sepharose fractions of extracts assayed). Format: cell-based. Particulars: Jurkat cells treated with 1000 nM for 1 hour, 0.001% DMSO. The arrangement: Protein phosphatase-2A1 purified from CD^4+ T cells as described in materials and method; endogenous in cells; host or cells: Jurkat cells; enzyme purified by DEAE Sepharose, Sephacryl S-300 HR and poly-L-lysine Agarose. On the procedure:
Jurkat cells (a CD^4+ T cell line) were grown in RPMI 1640 and 10% (v/v) fetal bovine serum. 1600 ml of cell suspension (10^6 cells per ml) were split into two flasks and one was treated with SYRAPRO-2000 for 1 hour (circles) while the other was not (squares). The cells from each flask were collected by centrifugation, washed with 50 mM Imidazole-Cl pH 7.2 plus 150 mM NaCl and then homogenized in homogenization buffer as described in materials and methods. The homogenate from each flask was chromatographed on a DEAE Sepharose column and the eluted fractions were assayed for type 2A protein phosphatase activity as described in materials and method. Similar results were obtained in 3 independent experiments.
The effect of synthesized SYRAPRO-2000 on protein phosphatase-2A1 can be determined in intact cells. Jurkat cells, a human CD^4+ T transformed cell line. Jurkat cells are grown in RPMI 1680 medium supplemented with 5% (v/v) fetal bovine serum and antibiotics and treated or not with 1 μM of SYRAPRO-2000 for 60 minutes. Following treatment with SYRAPRO-2000, cells are harvested by centrifugation, washed and homogenized. A cell extract is prepared by centrifugation and loaded onto a DEAE Sepharose column which is washed and eluted with a liner gradient of buffer plus 0 mM NaCl to buffer plus 400 mM NaCl. […]

SMILES strings stand for the structures.

Sequence of protein phosphatase-2A1 (P67775 whole entry): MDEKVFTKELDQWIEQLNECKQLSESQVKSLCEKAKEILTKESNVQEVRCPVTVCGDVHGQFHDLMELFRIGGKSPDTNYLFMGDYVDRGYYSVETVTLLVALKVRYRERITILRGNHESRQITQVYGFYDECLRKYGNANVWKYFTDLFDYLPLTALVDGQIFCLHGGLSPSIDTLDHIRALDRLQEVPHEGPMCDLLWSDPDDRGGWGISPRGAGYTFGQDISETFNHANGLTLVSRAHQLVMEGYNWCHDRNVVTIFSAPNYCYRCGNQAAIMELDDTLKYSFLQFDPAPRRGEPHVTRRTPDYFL
Sequence of protein phosphatase-2A1 (P30153 whole entry partner): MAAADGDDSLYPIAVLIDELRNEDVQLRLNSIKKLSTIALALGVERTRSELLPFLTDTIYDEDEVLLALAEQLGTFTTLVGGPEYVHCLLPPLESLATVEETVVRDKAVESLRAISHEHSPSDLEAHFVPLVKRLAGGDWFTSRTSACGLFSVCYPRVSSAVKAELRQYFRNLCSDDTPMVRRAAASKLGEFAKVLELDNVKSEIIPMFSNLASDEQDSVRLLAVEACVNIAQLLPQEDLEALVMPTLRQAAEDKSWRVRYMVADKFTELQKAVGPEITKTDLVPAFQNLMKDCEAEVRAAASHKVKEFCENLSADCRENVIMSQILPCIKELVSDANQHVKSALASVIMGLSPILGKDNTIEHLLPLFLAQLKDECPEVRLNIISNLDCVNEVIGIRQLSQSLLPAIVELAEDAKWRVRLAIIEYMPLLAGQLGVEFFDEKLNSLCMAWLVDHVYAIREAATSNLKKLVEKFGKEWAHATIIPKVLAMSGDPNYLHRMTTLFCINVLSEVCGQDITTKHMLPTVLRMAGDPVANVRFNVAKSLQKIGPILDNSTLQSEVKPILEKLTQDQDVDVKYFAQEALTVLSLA
Sequence of protein phosphatase-2A1 (P63151 whole entry partner): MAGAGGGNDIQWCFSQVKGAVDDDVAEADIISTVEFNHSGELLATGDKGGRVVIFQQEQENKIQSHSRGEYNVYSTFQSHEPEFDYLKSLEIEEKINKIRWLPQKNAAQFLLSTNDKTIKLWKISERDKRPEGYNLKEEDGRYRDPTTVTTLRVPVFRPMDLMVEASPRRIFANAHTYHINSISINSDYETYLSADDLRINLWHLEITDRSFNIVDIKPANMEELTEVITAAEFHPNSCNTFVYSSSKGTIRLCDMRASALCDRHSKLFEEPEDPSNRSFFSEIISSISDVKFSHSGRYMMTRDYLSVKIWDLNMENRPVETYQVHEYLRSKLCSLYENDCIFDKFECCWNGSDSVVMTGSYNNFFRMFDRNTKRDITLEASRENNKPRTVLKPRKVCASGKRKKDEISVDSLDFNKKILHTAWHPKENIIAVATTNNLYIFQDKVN

`CC[C@H](C)[C@H](NC(=O)[C@H](CCCNC(=N)N)NC(=O)[C@H](CO)NC(=O)[C@H](Cc1c[nH]cn1)NC(=O)[C@H](CCCNC(=N)N)NC(=O)[C@H](CS)NC(=O)CNC(=O)[C@@H](NC(=O)[C@H](CCCNC(=N)N)NC(=O)[C@H](Cc1ccccc1)NC(=O)[C@@H](N)Cc1c[nH]cn1)[C@@H](C)CC)C(=O)NCC(=O)N[C@H](C(=O)N[C@H](C(=O)N[C@@H](CCCNC(=N)N)C(=O)N[C@@H](CCC(N)=O)C(=O)N[C@@H](CCCNC(=N)N)C(=O)N[C@@H](CCCNC(=N)N)C(=O)N[C@@H](C)C(=O)N[C@@H](CCCNC(=N)N)C(=O)N[C@@H](CC(N)=O)C(=O)NCC(=O)N[C@@H](C)C(=O)N[C@@H](CO)C(=O)N[C@@H](CCCNC(=N)N)C(=O)N[C@@H](CO)C(=O)O)[C@@H](C)O)C(C)C` [SYRAPRO-2000]: the “activity of protein phosphatase-2A1 in intact cells” value was “became activated”.

The values are drawn from patent US20060252683A1, “Preparation of a peptide compound (SYRAPRO-2000) and its use for the activation of protein phosphatase-2A1 enzyme” (priority 2005, published 2006).
